Results on 34 compounds are retold here after patent US8404670B2 (Sunovion Pharmaceuticals Inc., priority 2009, dated 2013).

T1 sequence (Q9Y5N1 whole entry): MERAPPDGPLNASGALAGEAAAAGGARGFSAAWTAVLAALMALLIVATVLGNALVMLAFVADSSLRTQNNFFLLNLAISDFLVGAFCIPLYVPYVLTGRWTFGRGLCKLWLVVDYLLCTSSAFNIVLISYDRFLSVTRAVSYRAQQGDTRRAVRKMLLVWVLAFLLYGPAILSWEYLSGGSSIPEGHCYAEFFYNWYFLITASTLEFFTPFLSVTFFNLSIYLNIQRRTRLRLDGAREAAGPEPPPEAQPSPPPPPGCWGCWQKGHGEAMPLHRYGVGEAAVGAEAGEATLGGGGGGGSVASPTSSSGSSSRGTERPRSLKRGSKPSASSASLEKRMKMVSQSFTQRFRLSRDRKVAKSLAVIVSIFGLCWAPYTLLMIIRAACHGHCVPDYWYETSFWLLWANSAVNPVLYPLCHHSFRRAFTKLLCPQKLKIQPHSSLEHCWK

The experiment has as its target T1, human histamine H3 receptor (Homo sapiens, UniProt Q9Y5N1).
T1 construct: host or cells: cells expressing the human H3 receptor
Description: H3 GTPγS assay (SPA method), histamine H3 in vitro assay. It counts as biochemical. The settings on record: GTPγ[35S] binding to membranes of cells expressing human H3; antagonist mode with R-γ-Me-Histamine at EC80 (30 nM); in one embodiment HCl salts tested; read-out: Potency (functional potency as indicated by IC50).
On to `c1ccc2c(c1)CCN(c1ccc3c(c1)nc1n3CCN(C3CCC3)CC1)C2` [Compound 176, 3-cyclobutyl-8-(3,4-dihydroisoquinolin-2(1H)-yl)-2,3,4,5-tetrahydro-1H-benzo[4,5]imidazo[1,2-d][1,4]diazepine], for which the half-inhibitory concentration (IC50) was at most 10 nM.
In the case of `Fc1ccc2c(c1)CN(c1ccc3c(c1)nc1n3CCN(C3CCC3)CC1)CC2` [Compound 177, 3-cyclobutyl-8-(7-fluoro-3,4-dihydroisoquinolin-2(1H)-yl)-2,3,4,5-tetrahydro-1H-benzo[4,5]imidazo[1,2-d][1,4]diazepine], the 50% inhibitory concentration (IC50) is at most 10 nM.
Under `FC1(F)CCN(c2ccc3c(c2)nc2n3CCN(C3CCC3)CC2)CC1` [Compound 178, 3-cyclobutyl-8-(4,4-difluoropiperidin-1-yl)-2,3,4,5-tetrahydro-1H-benzo[4,5]imidazo[1,2-d][1,4]diazepine] stands at most 100 nM; under `FC1CCN(c2ccc3c(c2)nc2n3CCN(C3CCC3)CC2)CC1` [Compound 179, 3-cyclobutyl-8-(4-fluoropiperidin-1-yl)-2,3,4,5-tetrahydro-1H-benzo[4,5]imidazo[1,2-d][1,4]diazepine], at most 10 nM; under `FC1CCCN(c2ccc3c(c2)nc2n3CCN(C3CCC3)CC2)C1` (stereo not shown) [Compound 180, 3-cyclobutyl-8-(3-fluoropiperidin-1-yl)-2,3,4,5-tetrahydro-1H-benzo[4,5]imidazo[1,2-d][1,4]diazepine], at most 10 nM.
For `FC1CCN(c2ccc3c(c2)nc2n3CCN(C3CCC3)CC2)C1` (stereo not shown) [Compound 181, 3-cyclobutyl-8-(3-fluoropyrrolidin-1-yl)-2,3,4,5-tetrahydro-1H-benzo[4,5]imidazo[1,2-d][1,4]diazepine] the value was at most 100 nM; for `FC1(F)CCN(c2ccc3c(c2)nc2n3CCN(C3CCC3)CC2)C1` [Compound 182, 3-cyclobutyl-8-(3,3-difluoropyrrolidin-1-yl)-2,3,4,5-tetrahydro-1H-benzo[4,5]imidazo[1,2-d][1,4]diazepine], at most 100 nM; for `c1c2c(cc3c1nc1n3CCN(C3CCC3)CC1)CCNC2` [Compound 183, 9-cyclobutyl-2,3,4,7,8,9,10,11-octahydro-1H-[1,4]diazepino[7′,1′:2,3]imidazo[4,5-g]isoquinoline], at most 100 nM.
Under `c1cc2c(nc3n2CCN(C2CCC2)CC3)c2c1CNCC2` [Compound 184, 10-cyclobutyl-2,3,4,8,9,10,11,12-octahydro-1H-[1,4]diazepino[1′,7′:1,2]imidazo[4,5-f]isoquinoline] stands at most 1000 nM; under `N#Cc1ccc(C(=O)N2CCc3cc4c(cc3C2)nc2n4CCN(C3CCC3)CC2)cc1` [Compound 185, 4-(9-cyclobutyl-2,3,4,7,8,9,10,11-octahydro-1H-[1,4]diazepino[7′,1′:2,3]imidazo[4,5-g]isoquinoline-2-carbonyl)benzonitrile], at most 10 nM.
As to `O=C(C1CCC1)N1CCc2cc3c(cc2C1)nc1n3CCN(C2CCC2)CC1` [Compound 186, cyclobutyl(9-cyclobutyl-3,4,8,9,10,11-hexahydro-1H-[1,4]diazepino[7′,1′:2,3]imidazo[4,5-g]isoquinolin-2(7H)-yl)methanone], the IC50 was at most 100 nM.
Under `CC(=O)N1CCc2cc3c(cc2C1)nc1n3CCN(C2CCC2)CC1` [Compound 187, 1-(9-cyclobutyl-3,4,8,9,10,11-hexahydro-1H-[1,4]diazepino[7′,1′:2,3]imidazo[4,5-g]isoquinolin-2(7H)-yl)ethanone] stands at most 10 nM; under `CC(=O)N1CCc2c(ccc3c2nc2n3CCN(C3CCC3)CC2)C1` [Compound 188, 1-(10-cyclobutyl-9,10,11,12-tetrahydro-1H-[1,4]diazepino[1′,7′:1,2]imidazo[4,5-f]isoquinolin-3(2H,4H,8H)-yl)ethanone], at most 1000 nM.
For `c1c2c(cc3c1nc1n3CCN(C3CCC3)CC1)CNCC2` [Compound 189, 9-cyclobutyl-2,3,4,7,8,9,10,11-octahydro-1H-[1,4]diazepino[1′,7′:1,2]imidazo[4,5-g]isoquinoline] the value was at most 100 nM.
For `c1cnc(N2CCc3cc4nc5n(c4cc3C2)CCN(C2CCC2)CC5)cn1` [Compound 190, 9-cyclobutyl-2-(pyrazin-2-yl)-2,3,4,7,8,9,10,11-octahydro-1H-[1,4]diazepino[1′,7′:1,2]imidazo[4,5-g]isoquinoline] the value was at most 10 nM; for `O=C(C1CCC1)N1CCc2cc3nc4n(c3cc2C1)CCN(C1CCC1)CC4` [Compound 191, cyclobutyl(9-cyclobutyl-3,4,8,9,10,11-hexahydro-1H-[1,4]diazepino[1′,7′:1,2]imidazo[4,5-g]isoquinolin-2 (7H)-yl)methanone], at most 100 nM; for `N#Cc1ccc(C(=O)N2CCc3cc4nc5n(c4cc3C2)CCN(C2CCC2)CC5)cc1` [Compound 192, 4-(9-cyclobutyl-2,3,4,7,8,9,10,11-octahydro-1H-[1,4]diazepino[1′,7′:1,2]imidazo[4,5-g]isoquinoline-2-carbonyl)benzonitrile], at most 100 nM.
For `c1cnc(N2CCc3cc4nc5n(c4cc3C2)CCN(C2CCC2)CC5)nc1` [Compound 193, 9-cyclobutyl-2-(pyrimidin-2-yl)-2,3,4,7,8,9,10,11-octahydro-1H-[1,4]diazepino[1′,7′:1,2]imidazo[4,5-g]isoquinoline], the concentration for half-maximal inhibition (IC50) was at most 100 nM.
Under `CC(=O)N1CCc2cc3nc4n(c3cc2C1)CCN(C1CCC1)CC4` [Compound 194, 1-(9-cyclobutyl-3,4,8,9,10,11-hexahydro-1H-[1,4]diazepino[1′,7′:1,2]imidazo[4,5-g]isoquinolin-2(7H)-yl)ethanone] stands at most 100 nM; under `Cc1cn2cc(-c3ccc4c(c3)nc3n4CCN(C4CCC4)CC3)ccc2n1` [Compound 195, 3-cyclobutyl-8-(2-methylimidazo[1,2-a]pyridin-6-yl)-2,3,4,5-tetrahydro-1H-benzo[4,5]imidazo[1,2-d][1,4]diazepine], at most 10 nM.
Under `c1cc2ccc(-c3ccc4c(c3)nc3n4CCN(C4CCC4)CC3)nc2[nH]1` [Compound 196, 3-cyclobutyl-8-(1H-pyrrolo[2,3-b]pyridin-6-yl)-2,3,4,5-tetrahydro-1H-benzo[4,5]imidazo[1,2-d][1,4]diazepine] stands at most 100 nM.
Under `c1cc2nc(-c3ccc4c(c3)nc3n4CCN(C4CCC4)CC3)ccc2[nH]1` [Compound 197, 3-cyclobutyl-8-(1H-pyrrolo[3,2-b]pyridin-5-yl)-2,3,4,5-tetrahydro-1H-benzo[4,5]imidazo[1,2-d][1,4]diazepine] stands at most 10 nM.
As to `c1cc2c(cc1-c1ccc3cncn3c1)nc1n2CCN(C2CCC2)CC1` [Compound 198, 3-cyclobutyl-8-(imidazo[1,5-a]pyridin-6-yl)-2,3,4,5-tetrahydro-1H-benzo[4,5]imidazo[1,2-d][1,4]diazepine], the IC50 is at most 10 nM.
On to `c1cc2nc(-c3ccc4c(c3)nc3n4CCN(C4CCC4)CC3)cnc2[nH]1` [Compound 199, 3-cyclobutyl-8-(5H-pyrrolo[2,3-b]pyrazin-2-yl)-2,3,4,5-tetrahydro-1H-benzo[4,5]imidazo[1,2-d][1,4]diazepine], for which the IC50 was at most 100 nM.
With `c1cc2ncc(-c3ccc4c(c3)nc3n4CCN(C4CCC4)CC3)cc2[nH]1` [Compound 200, 3-cyclobutyl-8-(1H-pyrrolo[3,2-b]pyridin-6-yl)-2,3,4,5-tetrahydro-1H-benzo[4,5]imidazo[1,2-d][1,4]diazepine], the IC50 is at most 10 nM.
Under `c1cc2ncc(-c3ccc4c(c3)nc3n4CCN(C4CCC4)CC3)cc2o1` [Compound 201, 6-(3-cyclobutyl-2,3,4,5-tetrahydro-1H-benzo[4,5]imidazo[1,2-d][1,4]diazepin-8-yl)furo[3,2-b]pyridine] stands at most 10 nM; under `Cn1cnc2cc(-c3ccc4c(c3)nc3n4CCN(C4CCC4)CC3)cnc21` [Compound 202, 3-cyclobutyl-8-(3-methyl-3H-imidazo[4,5-b]pyridin-6-yl)-2,3,4,5-tetrahydro-1H-benzo[4,5]imidazo[1,2-d][1,4]diazepine], at most 10 nM; under `c1nc2ccc(-c3ccc4c(c3)nc3n4CCN(C4CCC4)CC3)cn2n1` [Compound 203, 8-([1,2,4]triazolo[1,5-a]pyridin-6-yl)-3-cyclobutyl-2,3,4,5-tetrahydro-1H-benzo[4,5]imidazo[1,2-d][1,4]diazepine], at most 100 nM.
For `c1cc2c(cc1-c1ccc3nncn3c1)nc1n2CCN(C2CCC2)CC1` [Compound 204, 8-([1,2,4]triazolo[4,3-a]pyridin-6-yl)-3-cyclobutyl-2,3,4,5-tetrahydro-1H-benzo[4,5]imidazo[1,2-d][1,4]diazepine] the value was at most 10 nM; for `Cn1ncc2ccc(-c3ccc4c(c3)nc3n4CCN(C4CCC4)CC3)cc21` [Compound 205, 3-cyclobutyl-8-(1-methyl-1H-indazol-6-yl)-2,3,4,5-tetrahydro-1H-benzo[4,5]imidazo[1,2-d][1,4]diazepine], at most 100 nM; for `Cn1cc2ccc(-c3ccc4c(c3)nc3n4CCN(C4CCC4)CC3)cc2n1` [Compound 206, 3-cyclobutyl-8-(2-methyl-2H-indazol-6-yl)-2,3,4,5-tetrahydro-1H-benzo[4,5]imidazo[1,2-d][1,4]diazepine], at most 100 nM.
Turning to `Cc1nc2ccccc2n1-c1ccc2c(c1)nc1n2CCN(C2CCC2)CC1` [Compound 207, 3-cyclobutyl-8-(2-methyl-1H-benzo[d]imidazol-1-yl)-2,3,4,5-tetrahydro-1H-benzo[4,5]imidazo[1,2-d][1,4]diazepine], the half-inhibitory concentration (IC50) was at most 10 nM.
For `Cc1nc2ccc(F)cc2n1-c1ccc2c(c1)nc1n2CCN(C2CCC2)CC1` [Compound 208, 3-cyclobutyl-8-(6-fluoro-2-methyl-1H-benzo[d]imidazol-1-yl)-2,3,4,5-tetrahydro-1H-benzo[4,5]imidazo[1,2-d][1,4]diazepine] the value was at most 10 nM.
Under `Cc1ccc2nc(C)n(-c3ccc4c(c3)nc3n4CCN(C4CCC4)CC3)c2c1` [Compound 209, 3-cyclobutyl-8-(2,6-dimethyl-1H-benzo[d]imidazol-1-yl)-2,3,4,5-tetrahydro-1H-benzo[4,5]imidazo[1,2-d][1,4]diazepine] stands at most 10 nM.
